According to article PMC11858854, “In Vitro and In Vivo Assessment of Pharmacokinetic Profile of Peramivir in the Context of Inhalation Therapy” (Pharmaceuticals, 2025):

What was measured:
human OCT2 = molecular target: T1, human OCT2 (Homo sapiens, UniProt O15244); assay: Uptake study, HEK293 cells overexpressing OCT2; type: in vitro ADME
T1 construct: host or cells: HEK293 (HEK293-OCT2); control HEK293-MOCK
T1 sequence (O15244 1-555): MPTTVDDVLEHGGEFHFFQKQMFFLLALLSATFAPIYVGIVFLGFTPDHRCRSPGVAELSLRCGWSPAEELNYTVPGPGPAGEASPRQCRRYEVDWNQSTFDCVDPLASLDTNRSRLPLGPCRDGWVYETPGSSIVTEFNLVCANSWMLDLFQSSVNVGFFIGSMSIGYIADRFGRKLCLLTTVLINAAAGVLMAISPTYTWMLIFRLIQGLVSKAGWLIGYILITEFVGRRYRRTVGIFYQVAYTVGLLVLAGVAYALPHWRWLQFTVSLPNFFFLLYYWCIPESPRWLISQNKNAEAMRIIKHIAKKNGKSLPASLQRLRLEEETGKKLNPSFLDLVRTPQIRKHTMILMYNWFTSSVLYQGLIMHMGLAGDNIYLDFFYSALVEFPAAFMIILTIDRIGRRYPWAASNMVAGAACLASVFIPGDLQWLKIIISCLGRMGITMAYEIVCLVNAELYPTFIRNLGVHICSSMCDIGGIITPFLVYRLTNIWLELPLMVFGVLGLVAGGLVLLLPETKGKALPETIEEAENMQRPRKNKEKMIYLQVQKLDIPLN
Description: All cells (HEK293-MOCK, HEK293-OCT1, HEK293-OCT2, MDCK-MOCK, MDCK-OCTN1, and MDCK-OCTN2) were cultured in DMEM medium supplemented with 10% FBS and PS (100 U/mL), at 37 °C in a humidified 5% CO2 incubator. Cells were seeded on 24-well plates at a density of 1 × 10^4 cells/well. For the uptake assay, the DMEM media were removed, and the cells were washed with pre-warmed Hank’s buffer three times (1 mL/well). Subsequent addition of inhibitor-free/inhibitor-containing buffer was pre-incubated for 30 min at 37 °C prior to the initiation of the uptake experiment. After the pre-incubating buffer was removed, 200 μL of pre-warmed test drugs solution (Hank’s buffer containing 10 µM and 50 µM peramivir) or a mixture of test drugs and inhibitor was added into each well, and the plates were incubated at 37 °C for 5 min. At the end of incubation, cells were washed and lysed as described above. The cell lysate was collected and stored at −40 °C for LC-MS/MS analysis and protein measurement. The negative control (MOCK cells) and positive control were included simultaneously.

LLC-PK1 cells = assay: Permeability assay, LLC-PK1-MOCK cells; type: in vitro ADME; conditions: LLC-PK1, 2 μM, Mean ± SD, n = 3
Description: When the cell transport system was mature in culture, experiments were performed. […] When assessing permeability in basolateral to apical (B-A) direction, 100 μL of pre-warmed Buffer B and 600 μL of pre-warmed test solutions were added to the apical and basolateral compartments, respectively. The Transwells® were placed in an incubator at 37 °C and 5% CO2 for a duration of 2 h. At the end of the incubation period, the samples in the apical and basolateral sides were collected separately and were briefly kept at a temperature of −40 °C for LC-MS/MS analysis. […] The cells were transferred to Transwell® plates (Corning, NY, USA) at a density of 2 × 10^4 cells/well with 200 μL of cell suspension per well, while 850 μL of complete medium was added to the basolateral chamber. […] The samples were collected separately and were briefly kept at a temperature of −40 °C for LC-MS/MS analysis.

[1] = oral; cited from earlier work
[2] = Pharmacokinetics study in rats (i.v. and tracheal nebulization, plasma); type: in vivo, rat; conditions: for AUC(0–t) / AUC(0–t)/D / AUC(0–∞) / Cmax or C0 / Cmax/D / MRT(0–t) / MRT(0–∞) / T1/2 / Tmax / Cl / Vss / Vz: rat plasma, Mean ± SD, n = 6
Description: Pharmacokinetic studies were performed on rats to examine the effects of two distinct routes of administration: intravenous (i.v.) and tracheal nebulization (i.t.). The two administration routes were established to provide different doses, with six SD rats randomly assigned and weighed for each route.
The intravenous group consisted of rats that were randomly allocated into two subgroups, receiving dosages of 3 mg/kg and 6 mg/kg, respectively. The i.t. group consisted of rats that were randomly allocated into four groups receiving doses of 0.3 mg/kg, 1 mg/kg, 3 mg/kg, and 6 mg/kg. Prior to and at 0.033, 0.083, 0.25, 0.5, 1, 2, 4, 6, 8, 12, and 24 h post-administration, about 200 μL of blood was obtained via jugular vein catheterization and transferred to an EP tube containing heparin. Following centrifugation for 10 min at 5000× g, the plasma was isolated and preserved in a refrigerator at −40 °C until analysis.
Noncompartmental PK parameter estimates were determined from individual concentration-time data, using Phoenix WinNonlin, version 8.1 (Certara USA, Princeton, NJ, USA). And the linear relationship between AUC(0–t) and the corresponding dose was analyzed. t tests were performed on pharmacokinetic parameters under different dosing regimens to analyse the differences in drug exposure in rats.

CCC(CC)[C@H](NC(C)=O)[C@@H]1[C@H](O)[C@@H](C(=O)O)C[C@H]1N=C(N)N [Peramivir]
OCT2 substrate status (human OCT2; HEK293-OCT2): does not act as a substrate | transporter-mediated uptake ratio (UR) (human OCT2; HEK293-OCT2, 50 μM): < 1 | inhibition ratio (IR) (human OCT2; HEK293-OCT2, 50 μM, inhibitor verapamil (200 μM)): exceeding 98.51% | Papp A-B (LLC-PK1 cells): BLQ | Papp B-A (LLC-PK1 cells): 0.21 ± 0.04 ×10−6 cm/s | oral bioavailability [1]: 3% | AUC(0–t) ([2]; i.t. 0.3 mg/kg): 405.17 ± 56.59 ng·h/mL | AUC(0–t)/D ([2]; i.t. 0.3 mg/kg): 1350.57 ± 188.64 kg·ng·h/mL/mg | AUC(0–∞) ([2]; i.t. 0.3 mg/kg): 407.71 ± 56.59 ng·h/mL | Cmax or C0 ([2]; i.t. 0.3 mg/kg): 204.67 ± 80.82 ng/mL | Cmax/D ([2]; i.t. 0.3 mg/kg): 682.22 ± 269.38 kg·ng/mL/mg | MRT(0–t) ([2]; i.t. 0.3 mg/kg): 1.62 ± 0.31 h | MRT(0–∞) ([2]; i.t. 0.3 mg/kg): 1.67 ± 0.33 h | T1/2 ([2]; i.t. 0.3 mg/kg): 1.07 ± 0.22 h | Tmax ([2]; i.t. 0.3 mg/kg): 0.37 ± 0.38 h | AUC(0–t) ([2]; i.t. 1 mg/kg): 1279.25 ± 93.59 ng·h/mL | AUC(0–t)/D ([2]; i.t. 1 mg/kg): 1279.25 ± 93.59 kg·ng·h/mL/mg | AUC(0–∞) ([2]; i.t. 1 mg/kg): 1291.03 ± 92.89 ng·h/mL | Cmax or C0 ([2]; i.t. 1 mg/kg): 544.17 ± 215.23 ng/mL | Cmax/D ([2]; i.t. 1 mg/kg): 544.17 ± 215.23 kg·ng/mL/mg | MRT(0–t) ([2]; i.t. 1 mg/kg): 2.08 ± 0.69 h | MRT(0–∞) ([2]; i.t. 1 mg/kg): 2.32 ± 1.07 h | T1/2 ([2]; i.t. 1 mg/kg): 4.10 ± 1.69 h | Tmax ([2]; i.t. 1 mg/kg): 0.67 ± 0.40 h | AUC(0–t) ([2]; i.t. 3 mg/kg): 4364.35 ± 583.02 ng·h/mL | AUC(0–t)/D ([2]; i.t. 3 mg/kg): 1454.78 ± 194.34 kg·ng·h/mL/mg | AUC(0–∞) ([2]; i.t. 3 mg/kg): 4673.22 ± 567.78 ng·h/mL | Cmax or C0 ([2]; i.t. 3 mg/kg): 2303.33 ± 1523.96 ng/mL | Cmax/D ([2]; i.t. 3 mg/kg): 767.78 ± 507.99 kg·ng/mL/mg | MRT(0–t) ([2]; i.t. 3 mg/kg): 3.15 ± 0.66 h | MRT(0–∞) ([2]; i.t. 3 mg/kg): 8.26 ± 4.04 h | T1/2 ([2]; i.t. 3 mg/kg): 27.20 ± 9.67 h | Tmax ([2]; i.t. 3 mg/kg): 0.29 ± 0.36 h | AUC(0–t) ([2]; i.t. 6 mg/kg): 8479.33 ± 883.87 ng·h/mL | AUC(0–t)/D ([2]; i.t. 6 mg/kg): 1413.22 ± 147.31 kg·ng·h/mL/mg | AUC(0–∞) ([2]; i.t. 6 mg/kg): 8852.22 ± 897.97 ng·h/mL | Cmax or C0 ([2]; i.t. 6 mg/kg): 3866.00 ± 2454.21 ng/mL | Cmax/D ([2]; i.t. 6 mg/kg): 644.33 ± 409.04 kg·ng/mL/mg | MRT(0–t) ([2]; i.t. 6 mg/kg): 3.41 ± 1.08 h | MRT(0–∞) ([2]; i.t. 6 mg/kg): 5.70 ± 1.84 h | T1/2 ([2]; i.t. 6 mg/kg): 17.73 ± 2.85 h | Tmax ([2]; i.t. 6 mg/kg): 0.29 ± 0.39 h | AUC(0–t) ([2]; i.v. 3 mg/kg): 3765.02 ± 247.43 ng·h/mL | AUC(0–t)/D ([2]; i.v. 3 mg/kg): 1255.00 ± 82.48 kg·ng·h/mL/mg | AUC(0–∞) ([2]; i.v. 3 mg/kg): 3773.97 ± 245.49 ng·h/mL | Cl ([2]; i.v. 3 mg/kg): 13.296 ± 0.8863 mL/min/kg | Cmax or C0 ([2]; i.v. 3 mg/kg): 12,705.55 ± 1264.79 ng/mL | MRT(0–t) ([2]; i.v. 3 mg/kg): 0.59 ± 0.06 h | MRT(0–∞) ([2]; i.v. 3 mg/kg): 0.62 ± 0.06 h | T1/2 ([2]; i.v. 3 mg/kg): 2.11 ± 1.25 h | Vss ([2]; i.v. 3 mg/kg): 0.49811 ± 0.0581 L/kg | Vz ([2]; i.v. 3 mg/kg): 2.46265 ± 1.56916 L/kg | AUC(0–t) ([2]; i.v. 6 mg/kg): 6048.04 ± 635.88 ng·h/mL | AUC(0–t)/D ([2]; i.v. 6 mg/kg): 1008.01 ± 105.98 kg·ng·h/mL/mg | AUC(0–∞) ([2]; i.v. 6 mg/kg): 6060.92 ± 637.85 ng·h/mL | Cl ([2]; i.v. 6 mg/kg): 16.654 ± 1.7818 mL/min/kg | Cmax or C0 ([2]; i.v. 6 mg/kg): 22,731.79 ± 5543.47 ng/mL | MRT(0–t) ([2]; i.v. 6 mg/kg): 0.47 ± 0.06 h | MRT(0–∞) ([2]; i.v. 6 mg/kg): 0.51 ± 0.07 h | T1/2 ([2]; i.v. 6 mg/kg): 3.07 ± 0.61 h | Vss ([2]; i.v. 6 mg/kg): 0.47267 ± 0.06358 L/kg | Vz ([2]; i.v. 6 mg/kg): 4.43299 ± 1.0131 L/kg | increase of mean residence time (MRT), inhaled vs intravenous ([2]; rat, equivalent doses): nearly tenfold | time of peak plasma concentration ([2]; rat, following inhalation): approximately 30 min | bioavailability ([2]; rat, inhalation vs intravenous): exceeding 100% | dose linearity of AUC and Cmax ([2]; rat, intratracheal, dose range 0.3 mg/kg to 6 mg/kg): linear pharmacokinetics
